Data as given in patent EP4755880A1, “SUBSTITUTED NITROGEN-CONTAINING BICYCLIC COMPOUND AND USE THEREOF” (Sunshine Lake Pharma Co., Ltd., priority 2023, dated 2025).

Key:
MDA-MB-436 cells = experiment: Inhibition of proliferation of MDA-MB-436 cells (CellTiter-Glo); type: cell-based; conditions: Homo sapiens, MDA-MB-436, 168 h, 7 days incubation
Description: • 1. Cell Pretreatment: MDA-MB-436 cells were cultured in DMEM + 10% FBS + 1% penicillin-dip antibiotics + 1% ITS + 16 µg/ml glutathione. Cells in the logarithmic growth phase were digested with trypsin-EDTA, centrifuged and resuspended, and then seeded at a rate of 500-1000 cells/well in sterile 96-well opaque plates, 90 µl per well. After seeding, the cell culture plates were incubated overnight at 37°C with 5% CO2 before drug treatment. • 2. Drug treatment of MDA-MB-436 cells: The test compound was prepared as a 10 mM stock solution using DMSO. The drug was then diluted to a 10× working solution using growth medium (the compound was started at 100 µM and diluted 4-fold to achieve 9 concentrations). 10 µl of the 10× working solution was added to each well to achieve final drug concentrations of 10000, 2500, 625, 156, 39, 9.7, 2.4, 0.61, and 0.152 nM, respectively. Blank control wells containing the same DMSO concentration were also included, with three replicates for each concentration. After drug addition, the cells were incubated at 37°C with 5% CO2 for 7 days. • 3. After incubation, 100 µl of CellTiter-Glo® Reagent was added to each well, and luminescence was measured. The IC50 value of cell proliferation inhibition was calculated using GraphPad software to fit the curve. Table E: Results of the inhibitory effect of the compound of this invention on the proliferation of MDA-MB-436 cells.

PARP2 = PARP2 (Homo sapiens, UniProt Q9UGN5); experiment: biochemical;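 also: PARP2 enzyme ELISA on histone-coated plates, Strep-HRP detection with chemiluminescence read-out, 10 min compound preincubation with enzyme, inhibition scaled between Max and Min signal controls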
Description: Experimental Objective: To evaluate the inhibitory effect of the compounds of the present invention on the enzyme activities of PARP1 and PARP2 using ELISA.
• 1. histone-coated 384-well plates was prepared: 25 µL of histone solution was added to each well and incubated overnight at 4 °C. • 2. PBST buffer, blocking buffer (PBS buffer with 5% BSA and 0.05% Tween-20 added) and detection buffer (20 mM HEPES pH 7.5 + 100 mM NaCl + 2 mM DTT + 0.002% Tween-20 + 0.1% BSA) were prepared. • 3. The histone-coated 3 84-well plate was washed three times with PBST buffer, blocked at room temperature with 50 µL blocking buffer for 1 hour, and then washed three times with PBST buffer. • 4. Test compounds were prepared as 2000-fold stock solutions in DMSO. 50 nL of the stock solution was mixed with 19.95 µL detection buffer, and 5 µL of the gradient-diluted test compound was transferred to each well. • 5. Enzymatic reaction (PARP1): PARP1 & DNA mix was pre-incubated at 25 °C for 10 minutes. 10 µL of the PARP1 & DNA mix was added to each well and incubated with the test compound at room temperature for 10 minutes. […] Finally, the 384-well plate was washed three times with PBST buffer. Enzymatic reaction (PARP2): PARP2 was pre-incubated at 25 °C for 10 minutes. 10 µL of PARP2 was added to each well and incubated with the test compound at room temperature for 10 minutes. […] Finally, the 384-well plate was washed three times with PBST buffer. • 6. Detection (PARP1): 20 µL of anti-Poly/Mono-ADP Ribose Rabbit mAb was added and incubated at room temperature for 1.5 hours, followed by three washes of the 384-well plate with PBST buffer. Then, 20 µL of diluted anti-rabbit IgG, HRP-linked Antibody (diluted 1:2000 in blocking buffer) was added and incubated at room temperature for 1 hour. After washing the plate three times with PBST buffer, 25 µL of a 1:1 mixture of Femto-ECL Substrate A and Femto-ECL Substrate B was added. Detection (PARP2): 25 µL of Strep-HRP was added and incubated at room temperature for 1 hour, followed by three washes of the 384-well plate with PBS buffer. Then, 25 µL of a 1:1 mixture of Femto-ECL Substrate A and Femto-ECL Substrate B was added. • 7. Chemiluminescence intensity was measured using an Envision multimode microplate reader. • 8. Data Processing
The inhibition rate was calculated in Excel using formula (1). inh% = (Max−Signal)/(Max−Min)*100 [formula]
The IC50 value was obtained by fitting the data in XL-Fit using formula (2). Y = bottom + (top−bottom)/(1+(IC50/X)*HillSlope); [formula] wherein Y is the inhibition percentage and X is the compound concentration.

PARP1 = PARP1 (Homo sapiens, UniProt P09874); experiment: Inhibition of PARP1 enzyme activity (ELISA, chemiluminescence); type: biochemical; conditions: for IC50: ELISA, histone-coated plate, NAD+, 60 min at 25 °C; for Selectivity PARP2/PARP1: ratio of PARP2 IC50 to PARP1 IC50
DLD-1 BRCA2(-/-) cells = experiment: Inhibition of proliferation of DLD-1 BRCA2(-/-) cells (CTG method); type: cell-based; conditions: Homo sapiens, DLD-1, 168 h; 7 days incubation, CellTiter-Glo
Description: • 1. Cell Pretreatment: DLD-1 BRCA2(-/-) cells were cultured in growth medium 1640 + 10% FBS (fetal bovine serum) + 1% Penicillin-Streptomycin. Cells in the logarithmic growth phase were digested with trypsin-EDTA, centrifuged, and resuspended. DLD-1 BRCA2(-/-) cells were seeded at 1,000 cells/well in sterile 96-well opaque plates, 75 µl per well. After seeding, the cell culture plates were incubated overnight at 37 °C with 5% CO2 before adhesion, followed by treatment with the test compounds. • 2. DLD-1 BRCA2(-/-) Cell Drug Treatment: The test compound was prepared as a 10 mM stock solution using DMSO. The test compound was then diluted to a 4× working solution using growth medium (starting at 40 µM, with 9 4-fold dilutions). 25 µl of 4× working solution was added to each well to achieve final concentrations of 10000, 2500, 625, 156, 39, 9.7, 2.4, 0.61, and 0.152 nM, respectively. Blank control wells containing the same DMSO concentration were also included, with three replicates for each concentration. After adding the test compound, the cells were incubated at 37 °C with 5% CO2 for 7 days. • 3. After incubation, 100 µl of CellTiter-Glo® Reagent was added to each well, and […] intensity was measured. A curve was fitted using GraphPad software, and the IC50 value for cell proliferation inhibition was calculated.

[1] = Pharmacokinetics in mice after intravenous injection or gavage; conditions: BALB/c, mouse, plasma
Description: The compounds of the present invention were administered to test animals in the form of 5% DMSO + 30% PEG400 + 65% physiological saline, 10% DMSO + 10% Kolliphor HS15 + 80% Saline, 10% DMSO + 89% (25% SBE-B-CD) + (2% HCl), 20% PEG400 + 80% sterile water for injection, or 10% DMA+ 10% HS15 + 30% PEG400 + 50% sterile aqueous solution for injection. Animals were fasted for 12 hours before administration but had free access to water. For the intravenous administration group, the dose was 1 mg/kg. Blood samples (approximately 0.15 mL) were collected intravenously at the following time points after administration: 0.083, 0.25, 0.5, 1.0, 2.0, 4.0, 6.0, 8.0 and 24 h (dogs) or 0.083, 0.25, 0.5, 1.0, 2.0, 5.0, 7.0 and 24 h (mice and rats) or 0.083, 0.25, 0.5, 1.0, 2.0, 6.0, 8.0 and 24 h (monkeys). EDTA-K2 was pre-added to the blood collection tube as an anticoagulant. The blood samples were centrifuged at 12,000 rpm for 2 minutes, and plasma was collected and stored at -20 °C or - 70 °C. For the gavage administration group, the dosage was 1 mg/kg (mice, dogs, and monkeys) or 5 mg/kg (rats). After administration, venous blood samples (approximately 0.15 mL) were collected at the following time points: 0.25, 0.5, 1.0, 2.0, 4.0, 6.0, 8.0, and 24 h (dogs) or 0.25, 0.5, 1.0, 2.0, 5.0, 7.0, and 24 h (mice and rats) or 0.25, 0.5, 1.0, 2.0, 6.0, 8.0, and 24 h (monkeys). EDTA-K2 was pre-added to the blood collection tube as an anticoagulant. The blood samples were centrifuged at 12,000 rpm for 2 minutes, and plasma was collected and stored at -20 °C or -70 °C.
The collected plasma samples were processed (frozen plasma was thawed at room temperature, vortexed for 15 s to mix, 10-20 µL of plasma was taken, 120-150 µL of acetonitrile solution containing internal standard was added, vortexed for 5 min to mix, centrifuged at 4,000 rpm for 5 min, 100 µL of supernatant was taken, and 120-150 Ml/water (v/v = 1/1) was added and mixed). The concentration of compounds in the plasma was then analyzed by LC-MS/MS.

Chain of PARP2 (Q9UGN5 whole entry): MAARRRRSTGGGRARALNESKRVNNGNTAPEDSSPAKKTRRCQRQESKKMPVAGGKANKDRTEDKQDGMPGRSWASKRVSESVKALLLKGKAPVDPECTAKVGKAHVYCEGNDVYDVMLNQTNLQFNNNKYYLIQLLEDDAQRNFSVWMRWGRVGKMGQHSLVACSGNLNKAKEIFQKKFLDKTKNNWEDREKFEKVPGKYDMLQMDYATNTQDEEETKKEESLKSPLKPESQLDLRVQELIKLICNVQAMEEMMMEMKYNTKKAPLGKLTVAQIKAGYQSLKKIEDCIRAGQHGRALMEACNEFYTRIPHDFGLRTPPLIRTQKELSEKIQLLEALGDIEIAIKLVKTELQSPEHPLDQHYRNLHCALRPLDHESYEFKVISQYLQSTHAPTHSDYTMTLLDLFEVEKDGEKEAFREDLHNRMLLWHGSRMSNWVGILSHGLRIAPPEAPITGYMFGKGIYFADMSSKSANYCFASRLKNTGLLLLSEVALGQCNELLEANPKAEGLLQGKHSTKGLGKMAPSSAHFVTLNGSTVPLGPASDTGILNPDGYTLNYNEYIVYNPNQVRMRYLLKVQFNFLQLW
Chain of PARP1 (P09874 whole entry): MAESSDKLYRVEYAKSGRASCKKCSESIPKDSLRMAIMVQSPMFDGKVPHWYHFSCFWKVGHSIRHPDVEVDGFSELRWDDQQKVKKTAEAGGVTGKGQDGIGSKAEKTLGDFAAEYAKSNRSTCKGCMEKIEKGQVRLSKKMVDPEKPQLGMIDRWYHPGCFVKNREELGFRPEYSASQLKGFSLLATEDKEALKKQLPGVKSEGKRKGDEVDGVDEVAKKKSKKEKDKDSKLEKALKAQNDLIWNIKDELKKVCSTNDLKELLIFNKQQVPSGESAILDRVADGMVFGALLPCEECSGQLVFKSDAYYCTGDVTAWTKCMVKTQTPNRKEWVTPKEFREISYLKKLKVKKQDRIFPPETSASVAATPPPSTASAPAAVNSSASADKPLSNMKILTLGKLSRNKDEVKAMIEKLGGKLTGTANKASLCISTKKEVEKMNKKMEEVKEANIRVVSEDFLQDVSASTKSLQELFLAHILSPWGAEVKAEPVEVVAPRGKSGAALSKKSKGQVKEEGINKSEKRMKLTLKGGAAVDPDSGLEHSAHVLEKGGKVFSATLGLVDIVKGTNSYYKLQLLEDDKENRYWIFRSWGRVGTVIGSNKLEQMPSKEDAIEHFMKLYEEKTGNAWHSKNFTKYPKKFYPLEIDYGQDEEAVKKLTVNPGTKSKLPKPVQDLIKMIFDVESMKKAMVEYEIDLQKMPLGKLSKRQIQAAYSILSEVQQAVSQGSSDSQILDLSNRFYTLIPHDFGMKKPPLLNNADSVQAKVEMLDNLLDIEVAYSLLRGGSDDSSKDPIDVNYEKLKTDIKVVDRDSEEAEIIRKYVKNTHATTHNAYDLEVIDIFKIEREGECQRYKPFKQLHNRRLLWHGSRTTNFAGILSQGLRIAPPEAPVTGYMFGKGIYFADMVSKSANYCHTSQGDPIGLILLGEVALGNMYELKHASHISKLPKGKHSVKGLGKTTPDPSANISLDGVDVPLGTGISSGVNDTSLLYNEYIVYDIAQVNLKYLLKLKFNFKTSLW

Row | SMILES | IC50 (MDA-MB-436 cells) | IC50 (PARP2) | IC50 (PARP1) | Selectivity PARP2/PARP1 (PARP1) | IC50 (DLD-1 BRCA2(-/-) cells) | further results
1 | CNC(=O)c1ccc(N2CCN(Cc3cc(Oc4ccc(F)cc4)c4nc(C)c(=O)[nH]c4c3)CC2)c(F)n1 [Example 6, 6-fluoro-5-(4-((8-(4-fluorophenoxy)-2-methyl-3-oxo-3,4-dihydroquinoxalin-6-yl)methyl)piperazin-1-yl)-N-methylpicolinamide] | 6.8 nM | 839 nM | 1.2 nM | 700.1 | 14.5 nM | 
2 | CNC(=O)c1ccc(N2CCN(Cc3cc(-c4ccccc4F)c4nc(C)c(=O)[nH]c4c3)CC2)c(F)n1 [Example 8, 6-fluoro-5-(4-((8-(2-fluorophenyl)-2-methyl-3-oxo-3,4-dihydroquinoxalin-6-yl)methyl)piperazin-1-yl)-N-methylpicolinamide] | 23.6 nM | 2690 nM | 4.1 nM | 657.2 | 32.2 nM | 
3 | CNC(=O)c1ccc(N2CCN(Cc3cc(-c4cccc(F)c4)c4nc(C)c(=O)[nH]c4c3)CC2)c(F)n1 [Example 9, 6-fluoro-5-(4-((8-(3-fluorophenyl)-2-methyl-3-oxo-3,4-dihydroquinoxalin-6-yl)methyl)piperazin-1-yl)-N-methylpicolinamide] | 8.1 nM | 1140 nM | 1.61 nM | 705.3 | 11.1 nM | 
4 | CNC(=O)c1ccc(N2CCN(Cc3cc(-c4cccnc4)c4nc(C)c(=O)[nH]c4c3)CC2)c(F)n1 [Example 11, 6-fluoro-N-methyl-5-(4-((2-methyl-3-oxo-8-(pyridin-3-yl)-3,4-dihydroquinoxalin-6-yl)methyl)piperazin-1-yl)picolinamide] | 10.7 nM | 676 nM | 3.01 nM | 224.6 | 12.9 nM | 
5 | CNC(=O)c1ccc(C2=CCN(Cc3cc(OC(F)F)c4nc(C)c(=O)[nH]c4c3F)CC2)c(F)n1 [Example 16, 1'-((8-(difluoromethoxy)-5-fluoro-2-methyl-3-oxo-3,4-dihydroquinoxalin-6-yl)methyl)-2-fluoro-N-methyl-1',2',3',6'-tetrahydro-[3,4'-bipyridine]-6-carboxamide] | 6.2 nM | > 10000 nM | 2.8 nM | >3625 |  | 
6 | CNC(=O)c1ccc(N2CCN(Cc3cc(OC4CC(F)(F)C4)c4nc(C)c(=O)[nH]c4c3)CC2)c(F)n1 [Example 18, 5-(4-((8-(3,3-difluorocyclobutoxy)-2-methyl-3-oxo-3,4-dihydroquinoxalin-6-yl)methyl)piperazin-1-yl)-6-fluoro-N-methylpicolinamide] | 0.9 nM | 93.3 nM | 1.7 nM | 54.7 | 7.9 nM | 
7 | CC#Cc1cc(CN2CCN(c3ccc(C(=O)NC)nc3C)CC2)cc2[nH]c(=O)c(C)nc12 [Example 38, N,6-dimethyl-5-(4-((2-methyl-3-oxo-8-(prop-1-yn-1-yl)-3,4-dihydroquinoxalin-6-yl)methyl)piperazin-1-yl)picolinamide] | 5 nM |  |  |  | 15.1 nM | 
8 | CNC(=O)c1ccc(N2CCN(Cc3cc(C#Cc4ccccc4)c4nc(C)c(=O)[nH]c4c3F)CC2)c(F)n1 [Example 53, 6-fluoro-5-(4-((5-fluoro-2-methyl-3-oxo-8-(phenylethynyl)-3,4-dihydroquinoxalin-6-yl)methyl)piperazin-1-yl)-N-methylpicolinamide] | 3940 nM |  |  |  | 963 nM | 
9 | CNC(=O)c1ccc(N2CCN(Cc3cc(-c4ccnn4C)c4nc(C)c(=O)[nH]c4c3)CC2)c(F)n1 [Example 68, 6-fluoro-N-methyl-5-(4-((2-methyl-8-(1-methyl-1H-pyrazol-5-yl)-3-oxo-3,4-dihydroquinoxalin-6-yl)methyl)piperazin-1-yl)picolinamide] | 35.6 nM |  |  |  | 33.3 nM | 
10 | CNC(=O)c1ccc(N2CCN(Cc3cc(-c4ccc(OC)cc4)c4nc(C)c(=O)[nH]c4c3)CC2)c(F)n1 [Example 69, 6-fluoro-5-(4-((8-(4-methoxyphenyl)-2-methyl-3-oxo-3,4-dihydroquinoxalin-6-yl)methyl)piperazin-1-yl)-N-methylpyridine amide] |  | 8820 nM | 3.2 nM | 2751.7 | 32.6 nM | 
11 | CNC(=O)c1ccc(N2CCN(Cc3cc(-c4cnn(C)c4)c4nc(C)c(=O)[nH]c4c3)CC2)c(F)n1 [Example 70, 6-fluoro-N-methyl-5-(4-((2-methyl-8-(1-methyl-1H-pyrazol-4-yl)-3-oxo-3,4-dihydroquinoxalin-6-yl)methyl)piperazin-1-yl)picolinamide] | 13.9 nM |  |  |  | 14.2 nM | 

Now from value to compound, other results behind:

Row | IC50 (MDA-MB-436 cells) | IC50 (PARP2) | IC50 (PARP1) | Selectivity PARP2/PARP1 (PARP1) | IC50 (DLD-1 BRCA2(-/-) cells) | SMILES | further results
12 | 5.3 nM | 1780 nM | 1.84 nM | 968.5 | 4.7 nM | CNC(=O)c1ccc(N2CCN(Cc3cc(Oc4ccccc4)c4nc(C)c(=O)[nH]c4c3)CC2)c(F)n1 [Example 4, 6-fluoro-N-methyl-5-(4-((2-methyl-3-oxo-8-phenoxy-3,4-dihydroquinoxalin-6-yl)methyl)piperazin-1-yl)picolinamide] | 
13 | < 0.038 nM |  |  |  | 6.1 nM | CNC(=O)c1ccc(N2CCN(Cc3cc(Nc4ccccc4)c4nc(C)c(=O)[nH]c4c3)CC2)c(F)n1 [Example 5, 6-fluoro-N-methyl-5-(4-((2-methyl-3-oxo-8-(phenylamino)-3,4-dihydroquinoxalin-6-yl)methyl)piperazin-1-yl)picolinamide] | 
14 | 1.7 nM |  |  |  | 7.5 nM | CNC(=O)c1ccc(N2CCN(Cc3cc(-c4ccc(F)cc4)c4nc(C)c(=O)[nH]c4c3)CC2)c(F)n1 [Example 10, 6-fluoro-5-(4-((8-(4-fluorophenyl)-2-methyl-3-oxo-3,4-dihydroquinoxalin-6-yl)methyl)piperazin-1-yl)-N-methylpicolinamide] | 
15 |  | 9660 nM | 27.7 nM | 348.3 | 9.3 nM | CNC(=O)c1ccc(N2CCN(Cc3cc(OC(F)F)c4nc(C)c(=O)[nH]c4c3F)CC2)c(F)n1 [Example 14, 5-(4-((8-(difluoromethoxy)-5-fluoro-2-methyl-3-oxo-3,4-dihydroquinoxalin-6-yl)methyl)piperazin-1-yl)-6-fluoro-N-methylpicolinamide] | AUC(0-t) ([1]; iv, 2 mg/kg): 4680 ng·h/mL; Cmax ([1]; iv, 2 mg/kg): 2080 ng/mL; half-life ([1]; iv, 2 mg/kg): 3.3 h; AUC(0-t) ([1]; po, 5 mg/kg): 16200 ng·h/mL; Cmax ([1]; po, 5 mg/kg): 3830 ng/mL; half-life ([1]; po, 5 mg/kg): 3.3 h
16 | 4.2 nM | 70 nM | 0.7 nM | 107.3 | 1.5 nM | CNC(=O)c1ccc(N2CCN(Cc3cc(C4CC4)c4nc(C)c(=O)[nH]c4c3F)CC2)c(F)n1 [Example 19, 5-(4-((8-cyclopropyl-5-fluoro-2-methyl-3-oxo-3,4-dihydroquinoxalin-6-yl)methyl)piperazin-1-yl)-6-fluoro-N-methylpicolinamide] | 
17 | 3.5 nM |  |  |  | 1.3 nM | C=Cc1cc(CN2CCN(c3ccc(C(=O)NC)nc3F)CC2)cc2[nH]c(=O)c(C)nc12 [Example 25, 6-fluoro-N-methyl-5-(4-((2-methyl-3-oxo-8-vinyl-3,4-dihydroquinoxalin-6-yl)methyl)piperazin-1-yl)picolinamide] | 
18 | 14.7 nM |  |  |  | 8.3 nM | CNC(=O)c1ccc(N2CCN(Cc3cc(OC(F)F)c4nc(C(F)F)c(=O)[nH]c4c3)CC2)c(F)n1 [Example 56, 5-(4-((8-(difluoromethoxy)-2-(difluoromethyl)-3-oxo-3,4-dihydroquinoxalin-6-yl)methyl)piperazin-1-yl)-6-fluoro-N-methylpicolinamide] | 
19 | 20.3 nM |  |  |  | 8.59 nM | Cc1nc2c(OC(F)F)cc(CN3CCN(c4ccc(C(=O)NC5CC5)nc4F)CC3)c(F)c2[nH]c1=O [Example 61, N-cyclopropyl-5-(4-((8-(difluoromethoxy)-5-fluoro-2-methyl-3-oxo-3,4-dihydroquinoxalin-6-yl)methyl)piperazin-1-yl)-6-fluoropicolinamide] | 
